Test results taken from ChEMBL document CHEMBL1765079, “Syntheses of 2-deoxy-2,3-didehydro-N-acetylneuraminic acid analogues modified by N-sulfonylamidino groups at the C-4 position and biological evaluation as inhibitors of human parainfluenza virus type 1” (Bioorg Med Chem, 2011).

What follows are molecules tested against T1, Hemagglutinin-neuraminidase (Human parainfluenza virus 1, UniProt Q06992) (assay: Inhibition of Human parainfluenza virus 1 sialidase using N-acetyl-alpha-neuramic acid by fluorometric assay).
T1 sequence (Q06992 whole entry): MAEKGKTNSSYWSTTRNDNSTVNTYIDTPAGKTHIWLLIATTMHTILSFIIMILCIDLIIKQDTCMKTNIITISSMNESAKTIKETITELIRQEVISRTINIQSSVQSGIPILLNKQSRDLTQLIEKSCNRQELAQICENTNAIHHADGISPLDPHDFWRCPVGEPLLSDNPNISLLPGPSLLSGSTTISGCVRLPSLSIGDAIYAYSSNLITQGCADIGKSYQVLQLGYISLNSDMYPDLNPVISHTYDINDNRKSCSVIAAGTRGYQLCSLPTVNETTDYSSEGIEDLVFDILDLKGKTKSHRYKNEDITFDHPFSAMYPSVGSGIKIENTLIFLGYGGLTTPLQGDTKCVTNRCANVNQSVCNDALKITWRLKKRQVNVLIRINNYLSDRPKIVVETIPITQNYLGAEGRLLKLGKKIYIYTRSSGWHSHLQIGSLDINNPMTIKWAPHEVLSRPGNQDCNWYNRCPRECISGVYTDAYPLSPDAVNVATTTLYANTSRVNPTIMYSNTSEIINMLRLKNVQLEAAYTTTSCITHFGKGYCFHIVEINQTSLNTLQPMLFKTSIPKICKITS
Parameters: species or system Human respirovirus 1
`CCN(CC)/C(CCO[C@H]1C=C(C(=O)O)O[C@@H]([C@H](O)[C@H](O)CO)[C@@H]1NC(C)=O)=N/S(C)(=O)=O` was tested, and the IC50 was 1500 µM.
Molecule `CC(=O)N[C@H]1[C@H]([C@H](O)[C@H](O)CO)OC(C(=O)O)=C[C@@H]1OCCC(=Nc1ccccc1)NS(C)(=O)=O` has an IC50 of 800 µM.
For `CCN(CC)/C(CCO[C@H]1C=C(C(=O)O)O[C@@H]([C@H](O)[C@H](O)CO)[C@@H]1NC(C)=O)=N\S(=O)(=O)c1ccc(C)cc1`, the IC50 was 9100 µM.
Molecule `CC(=O)N[C@H]1[C@H]([C@H](O)[C@H](O)CO)OC(C(=O)O)=C[C@@H]1OCC/C(=N\S(=O)(=O)c1ccc(C)cc1)N(C(C)C)C(C)C` has an IC50 of 4800 µM.
`CC(=O)N[C@H]1[C@H]([C@H](O)[C@H](O)CO)OC(C(=O)O)=C[C@@H]1OCCC(=NC(C)C)NS(=O)(=O)c1ccc(C)cc1` showed an IC50 of 7700 µM.
`CC(=O)N[C@H]1[C@H]([C@H](O)[C@H](O)CO)OC(C(=O)O)=C[C@@H]1N=C(Cc1ccccc1)NS(C)(=O)=O` showed an IC50 of 2100 µM.
Work on `CC(=O)N[C@H]1[C@H]([C@H](O)[C@H](O)CO)OC(C(=O)O)=C[C@@H]1N=C(Cc1ccc(F)cc1)NS(C)(=O)=O` yielded an IC50 of 1600 µM.
In the case of `CCCc1ccc(C/C(=N/S(C)(=O)=O)N[C@H]2C=C(C(=O)O)O[C@@H]([C@H](O)[C@H](O)CO)[C@@H]2NC(C)=O)cc1`, the IC50 is reported as 1600 µM.
For `CC(=O)N[C@H]1[C@H]([C@H](O)[C@H](O)CO)OC(C(=O)O)=C[C@@H]1N=C(CC1=CCCCC1)NS(C)(=O)=O`, the IC50 was 1500 µM.
With `CC(=O)N[C@H]1[C@H]([C@H](O)[C@H](O)CO)OC(C(=O)O)=C[C@@H]1N=C(Cc1cccs1)NS(C)(=O)=O` the IC50 was 2000 µM.
With `CC(=O)N[C@H]1[C@H]([C@H](O)[C@H](O)CO)OC(C(=O)O)=C[C@@H]1N=C(C)NS(C)(=O)=O` the IC50 was 16000 µM.
For `CC(=O)NC1[C@H](C(O)[C@H](O)CO)OC(C(=O)O)=C[C@@H]1O` (single isomer, unassigned) [NEU5AC2EN], the IC50 was 300 µM.
